In patent publication US20190084909A1, “F[…] COMPOUNDS, COMPOSITIONS AND USES THEREOF” (YISSUM RESEARCH DEVELOPMENT COMPANY OF THE HEBREW …, priority 2015, published 2019):
Values joined by “and” are separate entries in the source; they are usually repeats but may differ in a detail not shown here. Equal entries are not always repeated.

Columns and labels:
Male Wistar rats [1] = experiment: Elevated plus maze (EPM), rats, microinjection into the dorsolateral periaqueductal gray; assay type: in vivo
Description: (§1) Male Wistar rats (220-250 g) and Swiss mice (25-30 g) originated from the Central Animal Farm of the School of Medicine of Ribeirio Preto (FMRP-USP) were maintained in groups of five animals per box (41×33×17 cm) in a temperature controlled room (24±2° C.) with a 12×12 h light-dark cycle. They received water and food ad libitum throughout the study period.
(§2) HU-474 (1, 3 and 10 mg/kg) was administered intraperitoneally (IP) in mice at 10 mL/kg volume and HU-475 (1, 3 and 10 nmol) was injected intra-dIPAG in rats. Both drugs were dissolved in 2% Tween 80 in sterile saline.
Rats were submitted to a stereotaxic surgery to unilaterally implant cannulae (9.0 mm, 0.6 mm OD) into the dIPAG (coordinates: lateral: −1.9 mm; depth: −4.3 mm; angle: 16° from lambda; Paxinos and Watson, 2005), fixed to the skull with acrylic cement (Campos & Guimarães, 2008). The surgeries were performed under anesthesia with tribromoethanol 2.5% (10.0 mL/kg, IP) and immediately after the animals received Veterinary Pentabiotic (0.2 mL, intramuscular) and analgesic (Banamine, 1.0 mL/kg, subcutaneous) to prevent infections and decrease post-surgical pain. After surgery, animals underwent a recovery period of 5-7 days before the behavioral tests.
Animals received unilateral microinjections of vehicle or HU-475 into the dIPAG before being submitted to the behavioral tests. To this aim, microneedles (10.0 mm, 0.3 mm OD), connected to a microsyringe (Hamilton, USA, […]) through a segment of polyethylene (P10) were inserted into the guide cannulae. Solutions were injected with the help of an infusion pump (KD Scientific, USA). A 0.2 μL solution volume was injected over 1 min. After the injections, the needles remained inserted in the cannulae for additional 30 seconds to prevent drug reflux (Campos & Guimarães, 2008).
The wood EPM used to perform the experiments was located in a sound attenuated and temperature controlled room (23° C.), with one incandescent light (40 W) placed 1.3 m away from the maze. The apparatus consists of two opposing open arms (50×10 cm) without side walls, perpendicular to two enclosed arms (50×10×40 cm), with a central platform common to all arms (10×10 cm). The apparatus is elevated 50 cm above the ground and has an acrylic edge (1 cm) in the open arms to prevent animal falls. In this model, rodents naturally avoid the open arms, exploring more extensively the enclosed arms. […] The test lasted for 5 min and was recorded. The animal behavior was analyzed with the help of the Anymaze Software (version 4.5, Stoelting). […]
(§3) Results from HU-475 and HU-474 tests in the elevated plus maze were analyzed by Kruskal-Wallis followed by Mann-Whitney tests. Data from animals tested in the FST were analyzed by one-way ANOVA followed by Duncan test.

Swiss mice [2] = experiment: Forced swimming test (FST), mice; assay type: in vivo
Description: as §1, §2
Animals were individually submitted for 6 min of forced swimming in glass cylinders (height 25 cm, diameter 17 cm) containing 10 cm of water. The mice were videotaped and the immobility time (characterized by slow movements necessary to avoid drowning) was measured during the last 4-min period. The water was changed after each trial to maintain the temperature at 23-25° C. and to prevent the influence of alarm substances (Zanelati et al., 2010).
as §3

male C57BL/6J mice = experiment: Pre-pulse inhibition (PPI) test, impairment induced by MK-801; assay type: in vivo
Description: The experiments were performed using male C57BL/6J mice weighting 25-30 g. The animals were maintained throughout the experimental period under standard laboratory conditions with free access to water and food will be used.
HU-474 (3 and 10 mg/kg) was dissolved in 2% Tween 80 in sterile saline (vehicle). MK-801 (a NMDA antagonist, 0.5 mg/kg, Sigma, USA) was dissolved in saline. Drugs were administered intraperitoneally (ip) at 10 mL/kg volume.
The animals (n=9-11/group) received i.p. administration of vehicle or HU-474 (3 and 10 mg/kg) followed, 30 minutes later, by saline or MK-801 (0.5 mg/kg), resulting in the following experimental groups: vehicle+saline, HU 10+saline, vehicle+MK-801, HU 3+MK-801, HU 10+MK-801. The animals were submitted to PPI test 20 minutes after the last drug injection.
The PPI was carried out in three consecutive steps. The first consisted of an acclimation period during which no stimulus was presented. In the second step, called habituation, only the stimulus that triggers the startle (pulse) was presented. […] During this session the stimuli are presented at regular intervals of 30 s, 8 presentations of each stimulus. The percentage of the PPI was expressed as the percent inhibition of startle amplitude in response to multiple presentations of the pulse preceded by pre-pulse (PP), depending on the amplitude of the response only to the pulse (P), which was obtained in the following formula: % PPI=100−((PP/P)×100). Using this formula 0% represents no difference between the amplitude of startle triggered only by the pulse or pulse preceded by the pre-pulse and therefore no pre-pulse inhibition. This transformation was performed in order to reduce the statistical variability attributable to differences between animals and represents a direct measure of pre-pulse inhibition (Issy et al., 2009).
The percentage of PPI was analyzed by repeated measures MANOVA with the treatment as the independent factor and the prepulse intensity (80, 85 and 90 dB) as repeated measure.

Swiss mice [3] = experiment: Elevated plus maze (EPM), mice, HU-474 IP; assay type: in vivo
Description: as §1, §2
The wood EPM used to perform the experiments was located in a sound attenuated and temperature controlled room (23° C.), with one incandescent light (40 W) placed 1.3 m away from the maze. The apparatus consists of two opposing open arms (50×10 cm) without side walls, perpendicular to two enclosed arms (50×10×40 cm), with a central platform common to all arms (10×10 cm). The apparatus is elevated 50 cm above the ground and has an acrylic edge (1 cm) in the open arms to prevent animal falls. In this model, rodents naturally avoid the open arms, exploring more extensively the enclosed arms. Anxiolytic drugs increase the exploration in open arms without affecting the number of enclosed arms entries, which is usually used to assess general exploratory activity (File, 1992). Ten minutes after the last injection the animal was placed on the central platform of the maze with the head facing one of the enclosed arms. The test lasted for 5 min and was recorded. The animal behavior was analyzed with the help of the Anymaze Software (version 4.5, Stoelting). This software indicates the location of the animal in the EPM and automatically calculates the percentage of entries (Peo) and time spent in the open arms (Pto) and the number of entries in the enclosed arms (EA). Animals were only considered to enter an open or enclosed arm when 90% of their bodies were inside the region. All experiments were performed in the morning period (8 to 12 a.m.).
Similar to 5.1 except that the each arm measured 30×5 cm. 5.3 Forced Swimming Test (FST) Mice
as §3

Swiss mice [4] = settings: single administration i.p., MK801 0.3-1 mg/kg i.p.; 1 and 15 mg/kg also tested; cited from earlier work
Male Wistar rats [5] = settings: intra-dlPAG; doses tested 15, 30 and 60 nmol; cited from earlier work
rats = settings: Vogel punished licking test, intra-dlPAG; cited from earlier work
Swiss mice [6] = settings: cited from earlier work
Swiss mice [7] = settings: i.p., doses tested 3, 10, 30 and 100 mg/kg; cited from earlier work
Male Swiss mice = experiment: Pre-pulse inhibition (PPI), impairment induced by amphetamine; assay type: in vivo
Description: as §1, with “Male” for “Male Wistar rats (220-250 g) and”, “Ribeirão” for “Ribeirio”
Cannabidiol (CBD; THC Pharm, 15-60 mg/kg) and HU-485 (1-10 mg/kg) were administered intraperitoneally (ip). All drugs were dissolved in 2% Tween 80 in sterile saline.
The PPI test was conducted simultaneously in two identical startle response systems (Med Associates, USA). A continuous acoustic signal provided a background white noise level of 65 dB. The pulse consists of a 105 dB white noise burst with a rise/decay of 5 ms and duration of 20 ms. The pre-pulse comprised pure 7000 Hz tones, 10 ms duration, with intensities set at 80, 85, and 90 dB. The setups were daily calibrated to ensure equal sensitivity throughout the experiments. Calibration was performed by adjusting the gain on the load cell amplifier to 150 arbitrary units (AU) at a standard weight appropriated for a 40 g mice. The limits of the load cell were −2047 to +2047 AU. Thirty min after the injection of the tested compounds mice received i.p. injections of amphetamine 10 mg/kg or vehicle. […] The first 10 pulse-alone trials allow for the within-session habituation to the startle stimulus and are not considered for PPI statistical analysis. The test consisted of 64 pseudo-random trials divided into eight different groups presented with an inter-stimulus interval of 30 s, and consisting of pulse alone (105 dB), pre-pulse alone (80, 85, or 90 dB), pre-pulse+pulse with 100 ms interval between pre-pulse and pulse, and no stimulus presented. […] Mean acoustic startle response to pulse-alone (P) trials and each pre-pulse+pulse (PP+P) trial was recorded for each subject. PPI was calculated by expressing the pre-pulse+pulse startle amplitude as a percentage of decrease from pulse-alone startle amplitude, according to the following formula: % PPI=100−[100×(PP+P/P)]. This transformation reduces statistical variability attributable to differences between animals and it is a direct PPI measure. Antipsychotic drugs typically attenuate PPI impairment induced by amphetamine.
Results were analyzed by one-way ANOVA followed by Duncan test. […]
Animals received a first injection of vehicle (V) or CBD, followed 30 min later, by vehicle (n=9) or amphetamine 10 mg/kg (V+amphetamine group=9 animals). PPI was evaluated at three-stimuli intensity (90, 85 and 80 dB). […]
Animals received a first injection of vehicle (V) or HU-485, followed 30 min later, by vehicle (n=7) or amphetamine 10 mg/kg (V+amphetamine group=7 animals). PPI was evaluated at three-stimuli intensity (90, 85 and 80 dB). […]

Structure (SMILES): C=C(CF)[C@@H]1CCC(C)=CC1c1c(OC(C)=O)cc(CCCCC)cc1OC(C)=O (stereo partly shown) [HU-475, 10-fluoro-cannabidiol diacetate]
- number of enclosed arm entries (Male Wistar rats [1]; 1, 3 and 10 nmol intra-dlPAG): No effect
- percentage of time spent in the open arms (Male Wistar rats [1]; 1, 3 and 10 nmol intra-dlPAG, vs vehicle, X2=8.5, p=0.075 (trend)): tended to do the same
- percentage of entries onto the open arms (Male Wistar rats [1]; 1, 3 and 10 nmol intra-dlPAG, vs vehicle, X2=9.66, p<0.05): increased
- potency relative to CBD (Male Wistar rats [1]; EPM, intra-dlPAG injection, comparison of effective doses): 10 times

Structure (SMILES): C=C(C)[C@@H]1CCC(C)=CC1c1c(O)cc(CCCCC)c(F)c1O (stereo partly shown) [HU-474, 4′-fluoro-cannabidiol]
- immobility time in the FST (Swiss mice [2]; dose of 3 mg/kg IP (printed 3 m/kg), p=0.019): decreased
- immobility time in the FST (Swiss mice [2]; doses of 1 and 10 mg/kg IP): ineffective
- potency relative to CBD (Swiss mice [2]; forced swimming test, comparison of effective doses): 10 times
- effect on MK-801 PPI disruption (male C57BL/6J mice; 10 mg/kg i.p., MK-801 0.5 mg/kg, all prepulse intensities (80, 85, 90 dB), P<0.05): attenuated
- effective dose against MK-801 PPI disruption (male C57BL/6J mice; i.p., 3 and 10 mg/kg tested): 10 mg/kg
- number of enclosed arms entries (Swiss mice [3]; 1, 3 and 10 mg/kg IP): No effect
- percentage of entries onto the open arms (Swiss mice [3]; 1, 3 and 10 mg/kg IP): No effect
- percentage of time spent in the open arms (Swiss mice [3]; 1, 3 and 10 mg/kg IP, vs vehicle, X2=8.13, p<0.05): increased
- effective dose (anxiolytic-like effect in the EPM) (Swiss mice [3]; systemic administration, bell-shaped dose-response curve): 3 mg/kg

Structure (SMILES): C=C(C)[C@@H]1CCC(C)=C[C@H]1c1c(O)cc(CCCCC)cc1O [CBD, Cannabidiol]
- effective dose attenuating PPI deficits caused by MK801 (Swiss mice [4]): 5 mg/kg
- effective dose (anxiolytic-like effect in the EPM) (Male Wistar rats [5]): 30 nmol
- dose producing an anxiolytic-like effect (rats): 30 nmol
- dose able to attenuate the hyper-locomotion induced by MK801 (Swiss mice [6]): 30 mg/kg
- effective doses, hyperlocomotion induced by d-amphetamine (Swiss mice [6]): 30 mg/kg and 60 mg/kg
- dose producing an antidepressant-like effect in the forced swimming test (Swiss mice [7]): 30 mg/kg
- effect on PPI impairment by amphetamine (Male Swiss mice; CBD 30 and 60 mg/kg ip, intensities of 85 and 80 dB, amphetamine 10 mg/kg): attenuated

Structure (SMILES): C[C@]12N[C@H](Cc3ccccc31)c1ccccc12 [MK-801, reference compound]
- effect on PPI (male C57BL/6J mice; MK-801 0.5 mg/kg i.p., all prepulse intensities, P<0.05): significant PPI disruption

Structure (SMILES): CC(N)Cc1ccccc1 (stereo not shown) [amphetamine, reference compound]
- effect on PPI (Male Swiss mice; amphetamine 10 mg/kg i.p., all intensities (90, 85, 80 dB), Duncan p<0.05): impaired PPI
